According to patent US9895363B2, “Methods for modulating function of proliferating cell nuclear antigen (PCNA) and treating cancer with PCNA-targeting compounds” (University of Cincinnati, priority 2010, dated 2018):
Like-named read-outs stand apart in the source and are kept apart here.

Legend:
[1] = tested on: primary human prostate epithelial cells; experiment: Growth inhibition, prostate epithelial cells; format: cell-based; details: Epithelial cell, normal cells
Protocol: Growth inhibitory effects of PCNA-I1 and PCNA-I2 were assessed in human cancer cell lines, mouse cancer cell lines, immortalized mouse cell lines, and human primary cell lines. Specifically, growth inhibitory effects of PCNA-I1 and PCNA-I2 were assessed using MTT staining in the following cells lines: 1) human cancer cell lines including LNCaP (androgen receptor […]), 22Rv1, DU-145, LAPC-4, and PC-3 (androgen receptor […]) prostate cancer cells; MCF-7 and T47D breast cancer cells; A375 and MDA-MB435 melanoma cells; 2) mouse cancer cell lines including TRAMP-C2RE3 prostate cancer cells, B16 and K1735 melanoma cells, UV2237 fibrosarcoma cells, and CT-26 colon cancer cells; 3) immortalized mouse lung cell lines and mouse endothelial cell lines; and 4) primary human cell lines including umbilical endothelial cells (HUVEC, PromoCell, Heidelberg, Germany), primary bone marrow mesenchymal stem cells (HuMSC, PromoCell), primary human mammary epithelial cells (HuBrEC, Lonza, Walkersville, Md.), primary human prostate epithelial cells (HuPrEC, Lonza), and primary mouse spleen lymphocytes (isolated in this laboratory), and primary mouse bone marrow stromal cells (isolated in this laboratory). […]
IC50 values were derived from growth inhibition curves. […] Inhibition of cell growth was calculated using the formula: growth inhibition (%)=(1−A570 of treated/A570 of control)×100. […]

PC-3 cells = experiment: MTT assay, PCNA-I1 and cisplatin alone or combined, PC-3; format: cell-based, Human; details: Homo sapiens
Protocol: LNCaP or PC-3 cells were treated with a variety of concentrations of PCNA-I1 (0.1-10 μM) or cisplatin (0.1-10 μM) alone, or with a variety of concentrations of a combination of PCNA-I1 (0.1-10 μM) and cisplatin (0.1-10 μM) for four days. MTT assays were performed and IC50 values for PCNA-I1 and cisplatin were determined.

PCNA = target: T1, PCNA (Homo sapiens, UniProt P12004); experiment: PCNA stability and degradation (immunoblot); format: cell-based; details: PC-3, 0.5 μM, up to 16 H, with or without CHX and MG132; FIG. 14
T1 construct: endogenous PCNA was knocked down with transfection of PCNA-specific siRNA; endogenous in cells; host or cells: PC-3
T1 sequence (P12004 whole entry): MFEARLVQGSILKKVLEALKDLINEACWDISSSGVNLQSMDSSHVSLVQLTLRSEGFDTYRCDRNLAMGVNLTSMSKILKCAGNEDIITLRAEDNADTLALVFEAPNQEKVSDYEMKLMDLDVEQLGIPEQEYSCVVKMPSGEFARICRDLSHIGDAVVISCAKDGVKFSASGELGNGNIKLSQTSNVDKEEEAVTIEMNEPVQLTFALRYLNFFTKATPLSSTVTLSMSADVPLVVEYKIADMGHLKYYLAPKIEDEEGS
Protocol: PCNA is a very stable protein with a half life of 20 H in replicating cells. The effect of PCNA-I1 on PCNA stability and degradation was investigated. Specifically, PC-3 cells were treated for various times up to 24 H with protein synthesis inhibitor cycloheximide (CHX) to block de novo protein synthesis. Cells were lyzed in buffer A as discussed above and analyzed by immunoblotting. Additionally, because PCNA is subject to ubiquitination regulation, the effect of PCNA-I1 on and deregulation of PCNA through the proteosome-mediated system was also investigated. Specifically, PC-3 cells were treated for 16 H with 0.5 μM PCNA-I1 in the absence or presence of 5 μg/mL of CHX and/or 10 μM of MG132, a well-documented proteosome inhibitor.

GFP-PCNA = GFP-PCNA chromatin association, fluorescence microscopy; format: cell-based, Human; details: PC-3 transfected with pGFP-PCNA; 4 H, 0.5 μM PCNA-I1 or 2 μM PCNA-I2; FIG. 11
Protocol: Additionally, PC-3 cells were transfected for 24 H with pGFP-PCNA. The cells were then treated for 4 H with 0.5 μM of PCNA-I1 or 2 μM of PCNA-I2. The intact GFP-PCNA expressing cells were observed under a fluorescent microscope and recorded. After treatment with a buffer with 0.5% NP-40 buffer B, the cells were examined and recorded.

[2] = Toxicity evaluation in tumor-bearing mice; format: in vivo
Protocol: The therapeutic effects of PCNA-I1 were evaluated in LNCaP cells and 22Rv1 tumor models. LNCaP or 22Rv1 cells (1-2×10^6 cells in gelfoam) were implanted into the subcutis of male nude mice. From four to five days later, tumor-bearing mice were intraperitoneally injected with 10 mg/kg or 50 mg/kg of PCNA-I1. The therapy was continued at three times/week until termination of experiments. Control and treated tumor-bearing mice were monitored daily. Mouse body weight was recorded for toxicity evaluation twice a week and tumor size was measured using calipers twice a week. The experiments were terminated when mice in control groups were moribund. Additionally, to further evaluate potential liver and renal toxicity of PCNA-I1, the blood of tumor-bearing mice were sampled after the treatment with PCNA-I1 for 8 weeks.

## Cc1ccsc1C(=O)N/N=C/c1ccc2ccccc2c1O [PCNA-I1]
[1]
  IC50: 2000 nM
PC-3 cells; PC-3, 96 h, MTT, four days, single agent, read-out: IC50 doses for cell growth inhibition, PC-3, agent alone
  IC50: 240 nM
PC-3 cells; PC-3, combined with 0.3 μM cisplatin, read-out: PCNA-I1 concentration giving 50% inhibition in combination, PC-3
  IC50: 80 nM
PCNA
  PCNA degradation: did not alter PCNA degradation
GFP-PCNA
  Level of chromatin-associated GFP-PCNA: reduced the level of chromatin-associated GFP-PCNA
  Total intensity of GFP-PCNA: did not significantly alter the total intensity of GFP-PCNA
[2]; 10 or 50 mg/kg i.p. every other day, up to 8 weeks
  Body weight of tumor-bearing mice: did not cause significant reduction in the body weight
[2]; treatment for 8 weeks, FIG. 21
  Aspartate transaminase (AST or SGOT): not significantly altered
  Blood urea nitrogen (BUN): not significantly altered
  Serum alanine transaminase (ALT or SGPT): not significantly altered
